Data reported in US11564875B2, “Cosmetic composition for skin regeneration” (Amorepacific Corporation, priority 2018, dated 2023).

Tests used:
[1] = test system: AQP3, PPAR-α, PPAR-β, K5, and K14 gene level in human keratinocyte cell line (HaCaT cells); test: Skin regeneration effect after ultraviolet (UV) irradiation: gene level changes in UVA-irradiated HaCaT cells; type: cell-based; settings: for skin regeneration effect: HaCaT cells
From the text: A human keratinocyte cell line (HaCaT cells) was irradiated with ultraviolet (UVA) (2 J/cm^2, 3 J/cm^2) and then, treated with a compound represented by Chemical Formula 1-1 (camellenodiol), which was obtained by extracting 10 kg of dry camellia powder with water-soluble ethanol and subsequently, performing filtration, concentration under a reduced pressure, and purification by using HP-20 and silica chromatography, to exam AQP3, PPAR-α, PPAR-β, K5, and K14 gene level changes, and the results are shown in FIGS. 1 to 4.

[2] = Cytotoxicity evaluation using a serum-free media; type: cell-based
Procedure: A cytotoxicity evaluation of the compound represented by Chemical Formula 1-1 was twice performed by using a serum-free media, and the results are shown in FIGS. 5 and 6. Referring to FIGS. 5 and 6, a significant cytotoxicity concentration of the compound represented by Chemical Formula 1-1 was 20 μM (cell viability<80%).

CC1(C)CC[C@]2(O)C(=O)C[C@]3(C)C(=CC[C@@H]4[C@@]5(C)CC[C@H](O)C(C)(C)[C@@H]5CC[C@]43C)[C@@H]2C1 [Chemical Formula 1-1, camellenodiol]
levels of the genes (AQP3, PPAR-α, PPAR-β, K5, K14) ([1]; HaCaT cells after UVA irradiation (2 J/cm^2, 3 J/cm^2), compound at 5 μM to 10 μM, specifically 7.5 μM, FIGS. 1 to 4): significantly increased | skin regeneration effect ([1]; UVA 2 J/cm^2, compound at 7.5 μM to 10 μM): excellent skin regeneration effect | skin regeneration effect ([1]; UVA 3 J/cm^2, compound at 5 μM to 7.5 μM): excellent skin regeneration effect | cell viability ([2]; at 20 μM): < 80% | significant cytotoxicity concentration ([2]; performed twice, criterion cell viability<80%, FIGS. 5 and 6): 20 µM
